Reference: the supplement of paper PMC4862054

Experiments:
Details in all cases: incubation time: 72 h
[1] = system: CAL-120; experiment: normalised response (% of control), CellTox Green; higher = less cell death (100 = DMSO, 0 = benzethonium chloride kill control)
Method in brief: (§1)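 The table gives the normalised signal for a single concentration in each entry. Breast cancer cell lines were seeded (20 µl suspension) into 384-well plates holding compound at 5 concentrations in 10-fold steps over a compound-specific 10,000-fold range and incubated 72 h, then read for CellTox Green fluorescence (485/520 nm) and CellTiter-Glo luminescence. Normalisation on each plate used 0.1 % DMSO (100) and a positive kill control (0).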

[2] = system: CAL-85-1; experiment: as above
Method in brief: as §1

[3] = system: DU-4475; experiment: as above
Method in brief: as §1

[4] = system: CAL-148; experiment: as above
Method in brief: as §1

[5] = system: MDA-MB-436; experiment: as above
Method in brief: as §1

[6] = system: BT-474; experiment: as above
Method in brief: as §1

[7] = system: Hs578T; experiment: as above
Method in brief: as §1

[8] = system: HCC1937; experiment: as above
Method in brief: as §1

[9] = system: BT-549; experiment: as above
Method in brief: as §1

[10] = system: MDA-MB-468; experiment: as above
Method in brief: as §1

[11] = system: MCF-10A; experiment: as above
Method in brief: as §1

[12] = system: MDA-MB-453; experiment: as above
Method in brief: as §1

[13] = system: HDQ-P1; experiment: as above
Method in brief: as §1

[14] = system: MFM-223; experiment: as above
Method in brief: as §1

[15] = system: CAL-51; experiment: as above
Method in brief: as §1

[16] = system: MDA-MB-231; experiment: as above
Method in brief: as §1

[17] = system: HCC1599; experiment: as above
Method in brief: as §1

[18] = system: HCC1143; experiment: as above
Method in brief: as §1

[19] = system: CAL-120; experiment: normalised response (% of control), CellTiter-Glo; higher = more viable cells (100 = DMSO, 0 = benzethonium chloride kill control)
Method in brief: as §1

[20] = system: CAL-85-1; experiment: as above
Method in brief: as §1

[21] = system: DU-4475; experiment: as above
Method in brief: as §1

[22] = system: CAL-148; experiment: as above
Method in brief: as §1

[23] = system: MDA-MB-436; experiment: as above
Method in brief: as §1

[24] = system: BT-474; experiment: as above
Method in brief: as §1

[25] = system: Hs578T; experiment: as above
Method in brief: as §1

[26] = system: HCC1937; experiment: as above
Method in brief: as §1

[27] = system: BT-549; experiment: as above
Method in brief: as §1

[28] = system: MDA-MB-468; experiment: as above
Method in brief: as §1

[29] = system: MCF-10A; experiment: as above
Method in brief: as §1

[30] = system: MDA-MB-453; experiment: as above
Method in brief: as §1

[31] = system: HDQ-P1; experiment: as above
Method in brief: as §1

[32] = system: MFM-223; experiment: as above
Method in brief: as §1

[33] = system: SK-BR-3; experiment: as above
Method in brief: as §1

[34] = system: CAL-51; experiment: as above
Method in brief: as §1

[35] = system: MDA-MB-231; experiment: as above
Method in brief: as §1

[36] = system: HCC1599; experiment: as above
Method in brief: as §1

[37] = system: HCC1143; experiment: as above
Method in brief: as §1

SMILES	normalised response [1]	normalised response [2]	normalised response [3]	normalised response [4]	normalised response [5]	normalised response [6]	normalised response [7]	normalised response [8]	normalised response [9]	normalised response [10]	normalised response [11]	normalised response [12]	normalised response [13]	normalised response [14]	normalised response [15]	normalised response [16]	normalised response [17]	normalised response [18]	normalised response [19]	normalised response [20]	normalised response [21]	normalised response [22]	normalised response [23]	normalised response [24]	normalised response [25]	normalised response [26]	normalised response [27]	normalised response [28]	normalised response [29]	normalised response [30]	normalised response [31]	normalised response [32]	normalised response [33]	normalised response [34]	normalised response [35]	normalised response [36]	normalised response [37]
CCn1c(-c2nonc2N)nc2cnc(Oc3cccc(NC(=O)c4ccc(OCCN5CCOCC5)cc4)c3)cc21 (1000 nM)	99%	109%	95.2%	83.5%	88.7%	101%	96.5%	73.9%	113%	111%	104%	98.7%	107%	101%	79.7%	79.5%	95%	95.2%	72.6%	102%	91.8%	86.7%	98.1%	82.6%	73.5%	98.2%	73.1%	83%	75.9%	95.6%	89.9%	94.2%	81.8%	83.2%	80.5%	91.3%	97.9%
CNC(=O)c1cccc(-c2ccc3c(N4CCOC[C@@H]4C)nc(N4CCOC[C@@H]4C)nc3n2)c1 [AZD2014] (1000 nM)	105%	104%	102%	46.1%	82.4%	96.9%	102%	70.8%	104%	132%	104%	102%	100%	61.1%	92.3%	104%	92.1%	97.5%	32.5%	36.9%	67.9%	35.1%	51.6%	59.5%	43.6%	56.7%	34.5%	43.3%	46.5%	39.8%	40.2%	33.7%	24.3%	28.8%	57.8%	98.5%	36.9%
Cc1cc(Nc2cc(CN3CCOCC3)c3nc(C)c(Cc4ccc(Cl)cc4F)n3n2)n[nH]1 [Gandotinib] (1000 nM)	97.4%	78.5%	102%	104%	66.1%	104%	101%	101%	119%	99.5%	90.8%	107%	105%	33%	71.4%	101%	104%	97%	90.4%	78.1%	99.9%	96.7%	86.4%	75.8%	86.7%	96.7%	77%	53.1%	96.6%	107%	90%	69.7%	82.4%	55%	70.7%	124%	88.6%
COc1cc2c(NC3CCN(C(C)C)CC3)nc(N3CCC(F)(F)CC3)nc2cc1OCCCN1CCCC1 [UNC0642] (1000 nM)	96.9%	97.7%	96.4%	94.5%	61.8%	97.4%	67.8%	108%	86.2%	146%	90.6%	102%	104%	88.9%	98%	92.8%	97.6%	102%	89%	93.2%	98.7%	89.1%	90.9%	109%	100%	94%	92.4%	85.9%	84.6%	94.6%	99.7%	91.2%	96.4%	108%	95.4%	93.1%	91.2%
CCOC(=O)CCNc1cc(N2CCc3ccccc3CC2)nc(-c2ccccn2)n1 [GSK-J4] (10000 nM)	87.7%	2.31%	79.9%	53.5%	88.8%	-18.4%	-14.7%	100%	81.8%	40.1%	89.3%	88.5%	49.9%	76.9%	52.1%	57.7%	80.2%	68.1%	61.7%	20.1%	30.6%	10.1%	22.8%	44.7%	59.3%	49.4%	20.8%	12.7%	45.2%	33.1%	56.3%	42.3%	57.2%	12.2%	30.7%	45.9%	41.2%
Nc1cc(C(F)(F)F)c(-c2cc(N3CCOCC3)nc(N3CCOCC3)n2)cn1 [Buparlisib] (1000 nM)	100%	106%	95.6%	91.7%	90%	94.7%	107%	96.8%	113%	165%	-21.3%	98.9%	98.7%	97.5%	107%	80%	95.4%	95.9%	88%	95.1%	82.9%	96.2%	102%	99.8%	91.1%	89.5%	89.6%	82.9%	55.6%	99%	70.9%	53.3%	84%	90.4%	90.3%	102%	94%
